Laboratory results reported in paper PMC12973313 (Chemical Science, 2026).
Where two headings read alike, the source gives them in different places.

Assays:
Assay in all cases: GI50 determination, SRB assay
Assay type in all cases: cell-based, human
RPE-1 cells = settings: read-out: Mean GI50 (μM) RPE-1 SRB Assays
Procedure: (§1) GI50 determination assays
(§2) Cell culture: The RPE-1 retinal pigment epithelial, A2780 human ovarian carcinoma, and A2780 CisR cisplatin resistant human ovarian carcinoma cell lines were donated with thanks from the Institute of Cancer Research. The A2780 and A2780 CisR cell lines were cultured in IMDM supplemented with 10 % FBS at 37 °C and 5 % CO2, while the RPE-1 cell line was cultured in a 1:1 mixture of Dulbecco's Modified Eagle Medium and Ham’s F-12 Nutrient Mixture (DMEM/F-12) at 37 °C and 5 % CO2.
(§3) SRB assay: Cells were seeded into 96-well plates at 800 cells per well/cpw (A2780), 1600 cpw (A2780 CisR) or 400 cpw (RPE-1) in cell culture medium and cultured for 48 hours followed by addition of each compound over an eight-point concentration range (each concentration in triplicate). Plates were then cultured for a further 96 hours, after which the cell culture […]
(§4) medium was removed from each well and the cells fixed with addition of 70 µL/well of 10 % (w/v) trichloroacetic acid (TCA) in distilled water followed by incubation for 30 minutes at RT.
(§5) Each plate was then washed with distilled water five times before addition of 70 µL SRB dye (0.4 % (w/v) SRB dye (ThermoFisher Scientific, USA) solubilised in 1 % (v/v) acetic acid/ dH2O) and incubat ed for 30 minutes at RT, followed by washing three times with 1 % (v/v) acetic acid and drying in a 37 °C oven overnight. Once dry, 100 μl of 10 mM Tris -base (ThermoFisher Scientific, USA) was added to each well and plates put on a microplate shaker for 10 minutes at 200 rpm to solubilize the dye. Absorbance values were then read at wavelength 490 nm on a Victor X4 multi-label plate reader (PerkinElmer Life Sciences, USA), data analysed using Microsoft Excel and graphs produced using GraphPad Prism 9.0 and the GI50 value calculated.
(§6) Solutions and compo und preparation: All solvents and starting materials were purchased from known chemical suppliers. Compound stock solutions were prepared in DMSO. Buffer […]
(§7) 500 mM. Buffer B consisted of Na2SO4 (167 mM) and NaOAc (5 mM) with a pH of 5.5 and an ionic strength of 500 mM.
(§8) Vesicle formation: Giant unilamellar Vesicles (GUVS) were prepared through the electro formation method using a Nanion VesiclePrepPro. A solution of 1,2-diphytanoyl-sn-glycero-3-phosphocholine (DPhPC) (10 mM) with 10 % cholesterol in chloroform (20 µL) was deposited onto an ITO coated glass surface (surface coated glass slide) and allowed to evaporate to create a dehydrated thin lipid film. A greased O-ring was then placed around the dehydrated lipid film to create a seal. This volume was then filled with a sucrose solution (275 µL, 200 mM) and then sealed with a second ITO coated glass slide. An AC current (3 V/5 Hz) was then applied. After 2 hrs, the voltage and frequency were reduced in steps over 30 mins to 1.6 V/1 Hz and held for 1 hr before being reduced to 0 V/0 Hz over a further 30 min […]
(§9) Patch clamp measurements: Experiments were performed using a Port-a-Patch system (Nanion Technologies) with borosilicate glass chips that contain an aperture diameter of approximately 1 µm. Buffer A (5 µL) was placed on the underside of the chip over the aperture, The chip was then placed into the port-a-patch system. Buffer A (15 µL) was then added to the top of the chip and 5 µL of the GUV stock solution added. The GUVS were the positioned over the aperture in the chip by application of negative pressure (-30 mbar).
(§10) When a GUV is positioned over the aperture in the chip, it bursts, leaving a planar bilayer as a seal. The negative pressure is then removed, leaving the planar bilayer in place over the aperture. The external buffer A was the exchanged with buffer B, through four simultaneous […]
(§11) buffer exchanges (4 x 15 µL). […]
(§12) = 30 s, to give a final experimental concentration of 0.1 – 1 mM as appropriate. The number of sweeps was set to 1000, the sweep interval to 0.00 s, sample interval to 1.00 ms and the protocol was run for a total of 5 mins. Each experiment was repeated a minimum of three time to ensure reproducibility.

[1] = system: A2780 ovarian cancer cells; settings: for GI50: 96 hours, read-out: Mean GI50 (μM) A2780 SRB Assays
Procedure: as §1, §2, §3, §4, §5, §6, §7, §8, §9, §10, §11, §12

[2] = system: A2780 CisR cisplatin resistant ovarian cancer cells; settings: read-out: Mean GI50 (μM) A2780 CisR SRB Assays
Procedure: as §1, §2, §3, §4, §5, §6, §7, §8, §9, §10, §11, §12

What does the source list for `CC(C)CC(NC(=O)Nc1ccc(C(F)(F)F)cc1)C(=O)O` (stereo not shown) [SSA 5]?
GI50 (RPE-1 cells; 96 hours): > 375 µM; GI50 [1]: 231 µM; GI50 ([2]; 96 hours): 498 µM

Which GI50 (RPE-1 cells; Homo sapiens, RPE-1, 96 h) does the source give for `O=C(Nc1ccc(C(F)(F)F)cc1)N[C@@H](Cc1ccccc1)C(=O)O` [SSA 7] here?
Its GI50 is > 375 µM.

What about the GI50 ([1]; Homo sapiens, A2780, 96 h) of the same compound?
The GI50 was 178 µM.

What about the GI50 ([2]; Homo sapiens, A2780cisR, 96 h) of the same compound?
Its GI50 is 356 µM.

Which GI50 (RPE-1 cells; Homo sapiens, RPE-1, 96 h) does the source give for `O=C(Nc1ccc(C(F)(F)F)cc1)N[C@H](Cc1ccccc1)C(=O)O` [SSA 9] here?
The GI50 was > 375 µM.

What about the GI50 ([1]; Homo sapiens, A2780, 96 h) of the same compound?
The GI50 was 105 µM.

And the “selectivity for the cancer cells over the RPE-1 cells” value ([1]; no impact on RPE-1 cell growth at 350 µM)?
Its value is “≥ two-fold”.

And the GI50 ([2]; Homo sapiens, A2780cisR, 96 h)?
The GI50 was 197 µM.

For `O=C(O)CNC(=O)Nc1ccc(C(F)(F)F)cc1` [SSA 1], which GI50 (RPE-1 cells; Homo sapiens, RPE-1, 96 h) is on record?
Its GI50 is 296 µM.

And the GI50 ([1]; Homo sapiens, A2780, 96 h)?
Its GI50 is 117 µM.

And the GI50 ([2]; Homo sapiens, A2780cisR, 96 h)?
The GI50 was 367 µM.

For `CC(C)CC(NC(=O)Nc1ccc(C(F)(F)F)cc1)C(=O)O` (stereo not shown) [SSA 3], which GI50 (RPE-1 cells; Homo sapiens, RPE-1, 96 h) is on record?
The GI50 was > 500 µM.

What about the GI50 ([1]; Homo sapiens, A2780, 96 h) of the same compound?
The GI50 was 171 µM.

What about the GI50 ([2]; Homo sapiens, A2780cisR, 96 h) of the same compound?
Its GI50 is 276 µM.
